Data published in paper PMC5923399 (Marine Drugs, 2018).
Where a SMILES comes first, the peptide text is derived from it. Bridges are numbered along the chain shown (N, C = ends).

Columns and labels:
α3β2 nAChR = conditions: cited from earlier work
α4β2 nAChR = biological target: T1, α4β2 nAChR (Rattus norvegicus, UniProt P09483+P12390); conditions: cited from earlier work
T1 construct: expressed in transfected cells; host or cells: Xenopus oocytes (cRNA injection)

α7 nAChR = biological target: T2, α7 nAChR (Rattus norvegicus, UniProt Q05941); conditions: cited from earlier work
T2 construct: expressed in transfected cells; host or cells: Xenopus oocytes (cRNA injection)

GABABR-coupled Cav2.2 = biological target: T3, GABABR-coupled Cav2.2 (Homo sapiens, UniProt O75899+Q9UBS5); experiment: cell-based; parameters: species or system human GABABR and rat Cav2.2
T3 construct: expressed in transfected cells; host or cells: HEK293T cells, transient transfection; GABAB subunit plasmids from David J. Adams, University of Wollongong

rat α3β2 nAChRs = biological target: T4, rat α3β2 nAChRs (Rattus norvegicus, UniProt P04757+P12390); experiment: cell-based
T4 construct: expressed in transfected cells; host or cells: Xenopus oocytes (cRNA injection)

hα3β2 nAChR = conditions: cited from earlier work
hα4β2 nAChR = conditions: cited from earlier work
hα3β4 nAChR = conditions: cited from earlier work
α9α10 nAChR = biological target: T5, α9α10 nAChR (Rattus norvegicus, UniProt P43144+Q9JLB5); conditions: read-out: IC50 α9α10; cited from earlier work
T5 construct: expressed in transfected cells; host or cells: Xenopus oocytes (cRNA injection)
T5 sequence (P43144 26-479 limits assumed): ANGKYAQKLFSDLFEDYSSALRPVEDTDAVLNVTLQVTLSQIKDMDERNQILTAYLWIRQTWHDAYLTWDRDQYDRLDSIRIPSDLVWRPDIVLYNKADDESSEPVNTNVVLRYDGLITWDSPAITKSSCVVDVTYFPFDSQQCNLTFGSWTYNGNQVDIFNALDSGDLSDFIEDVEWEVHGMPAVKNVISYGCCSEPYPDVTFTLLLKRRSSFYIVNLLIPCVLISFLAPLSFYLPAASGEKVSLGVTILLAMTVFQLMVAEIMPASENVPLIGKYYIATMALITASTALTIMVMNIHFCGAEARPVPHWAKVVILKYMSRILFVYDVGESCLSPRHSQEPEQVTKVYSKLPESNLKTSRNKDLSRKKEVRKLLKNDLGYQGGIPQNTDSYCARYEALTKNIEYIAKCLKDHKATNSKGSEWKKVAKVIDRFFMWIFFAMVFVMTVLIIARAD
T5 sequence (Q9JLB5 25-447 limits assumed): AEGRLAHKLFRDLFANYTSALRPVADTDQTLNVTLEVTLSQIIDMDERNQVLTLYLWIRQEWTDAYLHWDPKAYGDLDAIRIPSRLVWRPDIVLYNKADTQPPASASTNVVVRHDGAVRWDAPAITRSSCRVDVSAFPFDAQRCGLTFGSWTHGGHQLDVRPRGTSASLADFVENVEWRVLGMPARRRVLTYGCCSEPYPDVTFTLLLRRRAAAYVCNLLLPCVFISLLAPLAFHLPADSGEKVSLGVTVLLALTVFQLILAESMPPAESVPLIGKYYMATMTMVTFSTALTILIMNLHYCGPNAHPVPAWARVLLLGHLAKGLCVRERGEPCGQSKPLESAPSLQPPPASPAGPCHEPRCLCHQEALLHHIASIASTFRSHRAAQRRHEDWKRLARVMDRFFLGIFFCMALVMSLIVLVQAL

T4 sequence (P04757 26-499 limits assumed): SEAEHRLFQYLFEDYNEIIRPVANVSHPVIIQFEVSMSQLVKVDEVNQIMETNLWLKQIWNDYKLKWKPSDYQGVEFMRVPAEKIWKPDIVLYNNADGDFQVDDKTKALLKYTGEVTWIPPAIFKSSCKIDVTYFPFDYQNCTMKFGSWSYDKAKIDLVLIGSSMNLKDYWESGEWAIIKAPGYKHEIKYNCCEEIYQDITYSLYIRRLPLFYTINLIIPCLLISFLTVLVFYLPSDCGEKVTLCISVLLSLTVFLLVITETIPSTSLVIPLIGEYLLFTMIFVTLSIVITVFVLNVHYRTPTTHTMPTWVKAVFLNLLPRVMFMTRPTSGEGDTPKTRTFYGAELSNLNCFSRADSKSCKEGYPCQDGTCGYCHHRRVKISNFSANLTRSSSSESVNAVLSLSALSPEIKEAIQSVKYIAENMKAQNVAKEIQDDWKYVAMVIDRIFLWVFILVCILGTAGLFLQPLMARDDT
T4 sequence (P12390 25-500 limits assumed): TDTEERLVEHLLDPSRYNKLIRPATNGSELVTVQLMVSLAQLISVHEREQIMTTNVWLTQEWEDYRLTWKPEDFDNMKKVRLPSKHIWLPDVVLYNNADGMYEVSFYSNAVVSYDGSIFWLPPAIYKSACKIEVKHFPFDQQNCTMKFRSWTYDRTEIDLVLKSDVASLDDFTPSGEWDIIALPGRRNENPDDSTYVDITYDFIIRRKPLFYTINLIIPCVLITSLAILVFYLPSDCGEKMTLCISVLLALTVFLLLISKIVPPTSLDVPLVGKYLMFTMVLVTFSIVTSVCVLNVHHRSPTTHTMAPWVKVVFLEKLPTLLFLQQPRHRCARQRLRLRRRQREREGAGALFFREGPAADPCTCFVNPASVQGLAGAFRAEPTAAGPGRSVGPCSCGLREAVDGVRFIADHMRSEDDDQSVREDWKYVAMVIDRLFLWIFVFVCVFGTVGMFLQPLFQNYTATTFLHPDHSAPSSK
T3 sequence (Q9UBS5 15-961 limits assumed): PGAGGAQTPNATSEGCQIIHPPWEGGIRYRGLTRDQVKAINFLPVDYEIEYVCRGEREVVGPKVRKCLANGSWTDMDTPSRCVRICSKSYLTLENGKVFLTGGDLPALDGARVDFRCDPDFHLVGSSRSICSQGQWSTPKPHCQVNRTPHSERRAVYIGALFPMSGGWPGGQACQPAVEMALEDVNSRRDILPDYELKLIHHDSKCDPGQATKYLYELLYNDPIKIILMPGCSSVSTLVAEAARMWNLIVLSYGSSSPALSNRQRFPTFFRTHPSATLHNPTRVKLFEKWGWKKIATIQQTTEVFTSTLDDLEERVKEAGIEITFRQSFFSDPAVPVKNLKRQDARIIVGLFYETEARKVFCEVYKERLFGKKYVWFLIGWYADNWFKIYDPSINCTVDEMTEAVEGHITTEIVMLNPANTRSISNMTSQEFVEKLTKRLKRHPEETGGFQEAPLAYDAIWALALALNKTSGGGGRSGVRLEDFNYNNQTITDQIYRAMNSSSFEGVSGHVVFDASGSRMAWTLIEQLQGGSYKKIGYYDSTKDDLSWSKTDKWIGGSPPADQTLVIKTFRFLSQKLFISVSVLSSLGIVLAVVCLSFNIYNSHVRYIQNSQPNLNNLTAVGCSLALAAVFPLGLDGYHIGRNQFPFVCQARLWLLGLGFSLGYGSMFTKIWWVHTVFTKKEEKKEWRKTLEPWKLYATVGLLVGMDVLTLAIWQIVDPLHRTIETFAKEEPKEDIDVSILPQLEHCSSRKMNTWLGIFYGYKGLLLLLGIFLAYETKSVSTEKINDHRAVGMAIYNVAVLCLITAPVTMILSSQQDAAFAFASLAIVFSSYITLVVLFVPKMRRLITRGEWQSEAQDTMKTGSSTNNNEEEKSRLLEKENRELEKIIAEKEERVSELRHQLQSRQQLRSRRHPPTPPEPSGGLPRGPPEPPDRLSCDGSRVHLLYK
T3 sequence (O75899 42-941): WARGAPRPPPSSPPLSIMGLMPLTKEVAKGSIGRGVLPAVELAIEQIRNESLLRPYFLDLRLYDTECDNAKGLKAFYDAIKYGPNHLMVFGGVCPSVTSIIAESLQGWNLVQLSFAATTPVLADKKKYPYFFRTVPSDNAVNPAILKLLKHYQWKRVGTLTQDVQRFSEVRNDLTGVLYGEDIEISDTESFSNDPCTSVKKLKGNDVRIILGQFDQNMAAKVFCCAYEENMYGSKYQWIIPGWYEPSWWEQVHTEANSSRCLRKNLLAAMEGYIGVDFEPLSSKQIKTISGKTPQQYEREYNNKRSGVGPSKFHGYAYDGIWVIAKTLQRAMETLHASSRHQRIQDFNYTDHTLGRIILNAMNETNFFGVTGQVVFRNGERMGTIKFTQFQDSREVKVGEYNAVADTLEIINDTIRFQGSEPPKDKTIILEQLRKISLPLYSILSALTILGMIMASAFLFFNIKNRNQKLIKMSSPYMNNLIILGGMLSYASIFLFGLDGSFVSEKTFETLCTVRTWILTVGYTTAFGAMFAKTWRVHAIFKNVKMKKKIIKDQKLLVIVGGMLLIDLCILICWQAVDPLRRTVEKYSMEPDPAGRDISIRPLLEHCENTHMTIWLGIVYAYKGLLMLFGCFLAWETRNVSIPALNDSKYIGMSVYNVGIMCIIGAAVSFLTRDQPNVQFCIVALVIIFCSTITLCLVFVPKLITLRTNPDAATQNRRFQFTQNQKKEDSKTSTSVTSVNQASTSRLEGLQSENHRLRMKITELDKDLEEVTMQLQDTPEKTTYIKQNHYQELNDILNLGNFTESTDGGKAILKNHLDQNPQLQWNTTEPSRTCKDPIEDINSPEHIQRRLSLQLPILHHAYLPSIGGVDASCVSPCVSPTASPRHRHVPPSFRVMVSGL

In the case of “G CC SNPV C HLEHSNL C * (bicyclic or more) [MII, α4/7-CTx targeting nAChR α3β2]”, the IC50 (α3β2 nAChR) is given as 0.5 nM.
In the case of “G CC SNPV C HLEHSNL C * (bicyclic or more) (GCCSNPVCHLEHSNLC) [MII, α4/7-CTx targeting nAChR α3β2]”, the IC50 (α4β2 nAChR) is listed as 548 nM and the IC50 (α7 nAChR) is listed as roughly 200 nM.
With `C[C@@H]1NC(=O)[C@@H]2CCCN2C(=O)[C@H](Cc2c[nH]cn2)NC(=O)[C@H](CO)NC(=O)[C@@H]2CSSC[C@H](NC1=O)C(=O)N[C@@H](CO)C(=O)NCC(=O)N[C@@H](CC(N)=O)C(=O)N[C@@H](CC(N)=O)C(=O)N1CCC[C@H]1C(=O)N[C@@H](Cc1ccc(O)cc1)C(=O)N[C@@H](Cc1ccccc1)C(=O)N[C@H](C(N)=O)CSSC[C@H](NC(=O)CN)C(=O)N2` [Lt1.3-I] (H-GCCSHPACSGNNPYFC-NH2; disulfide 2-16, 3-8) the IC50 (GABABR-coupled Cav2.2) was 33.9 nM, the inhibition at 0.1 µM (GABABR-coupled Cav2.2; HEK-293T, read-out: inhibition of peak current amplitude, SEM) was 28 ± 3.8% and the IC50 (rat α3β2 nAChRs) was greater than 10000 nM.
Work on `C[C@@H]1NC(=O)[C@@H]2CSSC[C@H](NC(=O)CN)C(=O)N[C@@H](CSSC[C@@H](C(N)=O)NC(=O)[C@H](Cc3ccccc3)NC(=O)[C@H](Cc3ccc(O)cc3)NC(=O)[C@@H]3CCCN3C(=O)[C@H](CC(N)=O)NC(=O)[C@H](CC(N)=O)NC(=O)CNC1=O)C(=O)N[C@@H](CO)C(=O)N[C@@H](Cc1c[nH]cn1)C(=O)N1CCC[C@H]1C(=O)N[C@@H](C)C(=O)N2` [Lt1.3[S9A]] yielded an IC50 (rat α3β2 nAChRs) of 35.4 nM.
In the case of “SG CC SNPA C RVNNPNI C * (bicyclic or more) (SGCCSNPACRVNNPNIC) [LsIA, α4/7-CTx targeting nAChR α3β2]”, the IC50 (α7 nAChR) is listed as 10.1 nM.
For “G CC SHPA C AGNNQHI C * (bicyclic or more) [GIC, α4/7-CTx targeting nAChR α3β2]”, the IC50 (hα3β2 nAChR) is given as 1.1 nM, the IC50 (hα4β2 nAChR) is given as 309 nM and the IC50 (hα3β4 nAChR) is given as 755 nM.
For `C[C@@H]1NC(=O)CNC(=O)[C@H](CO)NC(=O)[C@@H]2CSSC[C@H](NC(=O)CN)C(=O)N[C@@H](CSSC[C@@H](C(N)=O)NC(=O)[C@H](Cc3ccccc3)NC(=O)[C@H](Cc3ccc(O)cc3)NC(=O)[C@@H]3CCCN3C(=O)[C@H](CC(N)=O)NC1=O)C(=O)N[C@@H](CO)C(=O)N[C@@H](Cc1c[nH]cn1)C(=O)N1CCC[C@H]1C(=O)N[C@@H](C)C(=O)N2` [Lt1.3[N11A]] (H-GCCSHPACSGANPYFC-NH2; disulfide 2-8, 3-16; N-terminus assumed), the IC50 (rat α3β2 nAChRs) was greater than 10000 nM.
For “SG CC SNPA C RVNNPNI C * (bicyclic or more) [LsIA, α4/7-CTx targeting nAChR α3β2]”, the IC50 (α3β2 nAChR) is listed as 10.3 nM.
For “IRDE CC SNPA C RVNNOHV C RRR (bicyclic or more) [ArIA, α4/7-CTx targeting nAChR α3β2]”, the IC50 (α3β2 nAChR) is given as 18 nM.
For “PE CC THPA C HVSHPEL C * (bicyclic or more) [Mr1.7, α4/7-CTx targeting nAChR α3β2]”, the IC50 (α3β2 nAChR) is given as 53.1 nM and the IC50 (α9α10 nAChR) is given as 188 nM.
For “GG CC SHPA C AANNQD(sTy) C * (bicyclic or more) [AnIB, α4/7-CTx targeting nAChR α3β2]”, the IC50 (α3β2 nAChR) is given as 0.3 nM.
